Measured values: patent US6610677B2, “Pyrazole compounds useful as protein kinase inhibitors” (Vertex Pharmaceuticals Incorporated, priority 2000, dated 2003)

What was measured:
GSK-3β (AA 1-420) = biological target: T1, GSK-3β (AA 1-420) (Homo sapiens, UniProt P49841); assay: Ki determination for the inhibition of GSK-3 (coupled enzyme system); format: biochemical; details: 20 μM ATP, 300 μM peptide, 20 nM GSK-3β, 30° C
T1 construct: GSK-3β (AA 1-420)
Summary of the method: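 Ki values come from reaction rates over 10 min at 30 °C as a function of inhibitor concentration (12-point titration, 0.002–30 μM, 10 min preincubation). GSK-3β (AA 1-420, 20 nM) phosphorylated 300 μM primed peptide with 20 μM ATP; ADP formation followed by coupled NADH oxidation, pH 7.5.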

Aurora-2 = biological target: T2, Aurora-2 (Homo sapiens, UniProt O14965); assay: Ki determination for the inhibition of Aurora-2 (coupled enzyme assay); format: biochemical; details: 70 nM Aurora-2, peptide LRRASLG, 30° C
T2 sequence (O14965 1-403): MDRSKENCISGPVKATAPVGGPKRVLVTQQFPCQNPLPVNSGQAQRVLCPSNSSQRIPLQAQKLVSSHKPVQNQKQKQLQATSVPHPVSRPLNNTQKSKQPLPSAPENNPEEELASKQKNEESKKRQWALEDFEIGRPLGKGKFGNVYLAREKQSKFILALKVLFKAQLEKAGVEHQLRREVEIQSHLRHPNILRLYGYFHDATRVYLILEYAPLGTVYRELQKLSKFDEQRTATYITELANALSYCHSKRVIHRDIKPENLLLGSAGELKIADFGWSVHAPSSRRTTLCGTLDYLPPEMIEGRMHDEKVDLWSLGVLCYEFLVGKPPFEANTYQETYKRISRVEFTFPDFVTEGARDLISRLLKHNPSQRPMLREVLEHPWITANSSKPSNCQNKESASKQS
Experimental: Compounds were screened in the following manner for their ability to inhibit Aurora-2 using a standard coupled enzyme assay (Fox et al (1998) Protein Sci 7, 2249).
To an assay stock buffer solution containing 0.1M HEPES 7.5, 10 mM MgCl2, 1 mM DTT, 25 mM NaCl, 2.5 mM phosphoenolpyruvate, […], 30 mg/ml pyruvate kinase, 10 mg/ml lactate dehydrogenase, […], and 800 μM peptide (LRRASLG, American Peptide, Sunnyvale, Calif.) was added a DMSO solution of a compound of the present invention to a final concentration of 30 μM. The resulting mixture was incubated at 30° C. for 10 min. The reaction was initiated by the addition of 10 μL of Aurora-2 stock solution to give a final concentration of 70 nM in the assay. The rates of reaction were obtained by monitoring absorbance at 340 nm over a 5 minute read time at 30° C. using a BioRad Ultramark plate reader (Hercules, Calif.). The Ki values were determined from the rate data as a function of inhibitor concentration.

T1 sequence (P49841 whole entry, the tested form may be a part): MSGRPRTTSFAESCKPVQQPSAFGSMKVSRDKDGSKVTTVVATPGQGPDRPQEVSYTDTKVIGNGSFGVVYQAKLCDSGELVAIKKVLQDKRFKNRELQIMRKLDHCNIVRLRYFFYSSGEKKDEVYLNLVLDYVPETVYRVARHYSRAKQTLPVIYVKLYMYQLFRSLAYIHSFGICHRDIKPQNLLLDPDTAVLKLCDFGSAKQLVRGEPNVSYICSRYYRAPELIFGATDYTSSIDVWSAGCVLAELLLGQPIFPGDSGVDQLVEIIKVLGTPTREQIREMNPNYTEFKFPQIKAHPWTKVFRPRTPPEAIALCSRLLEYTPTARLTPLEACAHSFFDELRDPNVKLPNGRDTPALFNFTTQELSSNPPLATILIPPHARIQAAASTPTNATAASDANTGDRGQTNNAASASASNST

| Structure (SMILES) | Ki (GSK-3β (AA 1-420)) | Ki (Aurora-2) |
| --- | --- | --- |
| Cc1cc(Nc2nc(-c3ccccc3Cl)nc3ccccc23)n[nH]1 [II-36, [2-(2-Chlorophenyl)-quinazolin-4-yl]-(5-methyl-2H-pyrazol-3-yl)-amine] | < 100 nM | < 100 nM |
| FC(F)(F)c1ccccc1-c1nc(Nc2n[nH]c3ncccc23)c2ccccc2n1 [II-99, (1H-Pyrazolo[3,4-b]pyridin-3-yl)-[2-(2-trifluoromethyl-phenyl)-quinazolin-4-yl]-amine] | < 100 nM | 100 to 1000 nM |
| Cc1cc(Nc2cc(-c3ccccc3)n[nH]2)nc(-c2ccccc2OC(F)(F)F)n1 [II-103, [6-Methyl-2-(2-trifluoromethoxy-phenyl)-pyrimidin-4-yl]-(5-phenyl-2H-pyrazol-3-yl)-amine] | 100 to 1000 nM | 1000 to 20000 nM |
| Cc1cc(Nc2nc(-c3ccccc3C(F)(F)F)nc3ccccc23)n[nH]1 [II-41, (5-Methyl-2H-pyrazol-3-yl)-[2-(2-trifluoromethylphenyl)-quinazolin-4-yl]-amine] | < 100 nM | < 100 nM |
| Fc1cc(F)c2[nH]nc(Nc3nc(-c4cccnc4Cl)nc4ccccc34)c2c1 [II-94, [2-(2-Chloro-pyridin-3-yl)-quinazolin-4-yl]-(5,7-Difluoro-1H-indazol-3-yl)-amine] | < 100 nM | 100 to 1000 nM |
| Cc1ccccc1-c1nc(Nc2n[nH]c3ccccc23)c2ccccc2n1 [II-67, (1H-indazol-3-yl)-[2-(2-methyl-phenyl)-quinazolin-4-yl]-amine] | < 100 nM | 1000 to 20000 nM |
| Cc1cc(Nc2nc(-c3ccc(F)cc3F)nc3ccccc23)n[nH]1 [II-34, [2-(2,4-Difluorophenyl)-quinazolin-4-yl]-(5-methyl-2H-pyrazol-3-yl)-amine] | < 100 nM | < 100 nM |
| CCc1ccccc1-c1nc(Nc2cc(C)[nH]n2)c2ccccc2n1 [II-42, [2-(2-Ethylphenyl)-quinazolin-4-yl]-(5-Methyl-2H-pyrazol-3-yl)-amine] | < 100 nM | 100 to 1000 nM |
| Clc1ccccc1-c1nc(Nc2n[nH]c3ccccc23)c2ccccc2n1 [II-63, [2-(2-Chloro-phenyl)-quinazolin-4-yl]-(1H-indazol-3-yl)-amine] | < 100 nM | 1000 to 20000 nM |
| FC(F)(F)c1ccccc1-c1nc(Nc2n[nH]c3ccccc23)cc(-c2ccncc2)n1 [II-21, (1H-Indazol-3-yl)-[6-(pyridin-4-yl)-2-(2-trifluoromethyl-phenyl)-pyrimidin-4-yl]-amine] | < 100 nM | 1000 to 20000 nM |
| FC(F)(F)c1ccc2[nH]nc(Nc3nc(-c4ccccc4C(F)(F)F)nc4c3CCCC4)c2c1 [II-10, (5-Trifluoromethyl-1H-indazol-3-yl)-[2-(2-trifluoromethyl-phenyl)-5,6,7,8-tetrahydroquinazolin-4-yl]-amine] | < 100 nM | 1000 to 20000 nM |
| FC(F)(F)c1ccc2c(Nc3nc(-c4ccccc4C(F)(F)F)nc4ccccc34)n[nH]c2c1 [II-69, (6-Trifluoromethyl-1H-indazol-3-yl)-[2-(2-trifluoromethyl-phenyl)-quinazolin-4-yl]-amine] | < 100 nM | 1000 to 20000 nM |
| Cc1cc(Nc2nc(-c3c(C)cccc3C)nc3ccccc23)n[nH]1 [II-38, [2-(2,6-Dimethylphenyl)-quinazolin-4-yl]-(5-methyl-2H-pyrazol-3-yl)-amine] | < 100 nM | 100 to 1000 nM |
| Nc1ccc(-c2nc(Nc3n[nH]c4c(F)cc(F)cc34)c3ccccc3n2)c(Cl)c1 [II-96, [2-(4-Amino-2-chloro-phenyl)-quinazolin-4-yl]-(5,7-Difluoro-1H-indazol-3-yl)-amine] | < 100 nM | 1000 to 20000 nM |
| Oc1cc(Nc2nc(-c3ccccc3C(F)(F)F)nc3ccccc23)n[nH]1 [II-54, (5-Hydroxy-2H-pyrazol-3-yl)-[2-(2-trifluoromethylphenyl)-quinazolin-4-yl]-amine] | < 100 nM | 1000 to 20000 nM |
| Cc1cc(Nc2nc(-c3ccccc3Cl)nc(C)c2C)n[nH]1 [II-1, [2-(2-Clorophenyl)-5,6-dimethylpyrimidin-4-yl]-(5-Methyl-2H-pyrazol-3-yl)-amine] | < 100 nM | 100 to 1000 nM |
| FC(F)(F)c1ccc2[nH]nc(Nc3nc(-c4ccccc4Cl)nc4ccccc34)c2c1 [II-77, [2-(2-Chloro-phenyl)-quinazolin-4-yl]-(5-trifluoromethyl-1H-indazol-3-yl)-amine] | < 100 nM | 100 to 1000 nM |
| Fc1ccc2[nH]nc(Nc3nc(-c4ccccc4C(F)(F)F)nc4ccccc34)c2c1 [II-59, (5-Fluoro-1H-indazol-3-yl)-[2-(2-trifluoromethyl-phenyl)-quinazolin-4-yl]-amine] | < 100 nM | 1000 to 20000 nM |
| Fc1ccc2[nH]nc(Nc3nc(-c4ccccc4C(F)(F)F)nc4c3CCC4)c2c1 [II-107, (5-Fluoro-1H-indazol-3-yl)-[2-(2-trifluoromethyl-phenyl)-6,7-dihydro-5H-cyclopentapyrimidin-4-yl]-amine] | < 100 nM | 1000 to 20000 nM |
| COc1cccc2c(Nc3n[nH]c4ccc(F)cc34)nc(-c3ccccc3C(F)(F)F)nc12 [II-91, (5-Fluoro-1H-indazol-3-yl)-[8-methoxy-2-(2-trifluoromethyl-phenyl)-quinazolin-4-yl]-amine] | < 100 nM | 1000 to 20000 nM |
| FC(F)(F)c1ccccc1-c1nc(Nc2n[nH]c3ccccc23)c2ccccc2n1 [II-57, (1H-indazol-3-yl)-[2-(2-trifluoromethyl-phenyl)-quinazolin-4-yl]-amine] | < 100 nM | 1000 to 20000 nM |
| COc1cccc2c(Nc3n[nH]c4c(F)cc(F)cc34)nc(-c3ccccc3C(F)(F)F)nc12 [II-93, (5,7-Difluoro-1H-indazol-3-yl)-[8-methoxy-2-(2-trifluoromethyl-phenyl)-quinazolin-4-yl]-amine] | < 100 nM | 100 to 1000 nM |
| Cc1cc(Nc2cc(-c3ccco3)n[nH]2)nc(-c2ccccc2OC(F)(F)F)n1 [II-104, (5-Furan-2-yl-2H-pyrazol-3-yl)-[6-methyl-2-(2-trifluoromethoxy-phenyl)-pyrimidin-4-yl]-amine] | 100 to 1000 nM | 1000 to 20000 nM |

Now from value to compound:

| Ki (GSK-3β (AA 1-420)) | Ki (Aurora-2) | Structure (SMILES) |
| --- | --- | --- |
| < 100 nM | < 100 nM | Cc1cc(Nc2nc(-c3cccc(C(F)(F)F)c3)nc3ccccc23)[nH]n1 [III-53, (5-Methyl-2H-pyrazol-3-yl)-[2-(3-trifluoromethylphenyl)-quinazolin-4-yl]-amine] |
| 100 to 1000 nM | 1000 to 20000 nM | FC(F)(F)c1cccc(-c2nc(Nc3[nH]nc4ccccc34)c3ccccc3n2)c1 [III-132, (1H-Indazol-3-yl)-[2-(3-trifluoromethyl-phenyl)-quinazolin-4-yl]-amine] |
| < 100 nM | < 100 nM | Cc1cc(Nc2nc(-c3cccc(CO)c3)nc3ccccc23)[nH]n1 [III-59, [2-(3-Hydroxymethylphenyl)-quinazolin-4-yl]-(5-methyl-2H-pyrazol-3-yl)-amine] |
| < 100 nM | < 100 nM | Cc1cc(Nc2nc(-c3ccccc3)nc3c2CCCC3)n[nH]1 [III-7, (5-Methyl-2H-pyrazol-3-yl)-(2-phenyl-5,6,7,8-tetrahydroquinazolin-4-yl)-amine] |
| < 100 nM | 100 to 1000 nM | Cc1cc(Nc2nc(-c3cc(C(F)(F)F)cc(C(F)(F)F)c3)nc3ccccc23)[nH]n1 [III-58, [2-(3,5-Ditrifluoromethylphenyl)-quinazolin-4-yl]-(5-methyl-2H-pyrazol-3-yl)-amine] |
| < 100 nM | 1000 to 20000 nM | Fc1cc(F)c2n[nH]c(Nc3nc(-c4ccccc4)nc4c3CCCC4)c2c1 [III-127, (5,7-Difluoro-1H-indazol-3-yl)-(2-phenyl-5,6,7,8-tetrahydroquinazolin-4-yl)-amine] |
| 100 to 1000 nM | 1000 to 20000 nM | C=CCNC(=O)c1cc(Nc2nc(-c3ccccc3)nc3ccccc23)[nH]n1 [III-82, (5-Allylcarbamoyl-2H-pyrazol-3-yl)-(2-phenyl-quinazolin-4-yl)-amine] |
| 100 to 1000 nM | 1000 to 20000 nM | Fc1cccc2c(Nc3nc(-c4ccccc4)nc4ccccc34)[nH]nc12 [III-129, (7-Fluoro-1H-indazol-3-yl)-(2-phenyl-quinazolin-4-yl)-amine] |
| 100 to 1000 nM | 100 to 1000 nM | c1ccc(-c2nc(Nc3n[nH]c4ccccc34)c3ccccc3n2)cc1 [III-1, (1H-Indazol-3-yl)-(2-phenyl-quinazolin-4-yl)-amine] |
| < 100 nM | 1000 to 20000 nM | c1ccc2c(Nc3n[nH]c4ccccc34)nc(-n3ccnc3)nc2c1 [III-141, (2-imidazol-1-yl-quinazolin-4-yl)-(1H-indazol-3-yl)-amine] |
